# Test results published in US20190022041A1, “OIL PALM PHENOLICS COMPOSITION FOR THE PROTECTION OF HUMANS, ORGANS, CELLS AND TISSUES AGAINST THE INJURIOUS EFFECTS OF EXPOSURE TO IONIZING RADIATION” (Malaysian Palm Oil Board, priority 2015, published 2019).
# Tested on: HT-29 cells
# Test: number of colonies of HT-29 cells after gamma ionizing radiation
# Assay type: cell-based
# Conditions: FIG. 3
# Source text: For instance, lipid peroxidation levels of HT-29 by TBAR assay is protected by OPP against 800 and 1600 rads HT-29, as illustrated in graph of FIG. 2. […] Out of the three preparations, number of colonies of HT-29 is highest in case of de-phenolics.
structure (smiles),measurement,value
O=C(O)C1=C[C@@H](O)[C@@H](O)[C@H](O)C1 [shikimic acid],number of colonies,abruptly increases
